Test results taken from article PMC10762078, “Role of UPF1-LIN28A interaction during early differentiation of pluripotent stem cells” (Nature Communications, 2024).

System: CHA15 cells transcriptome / NMD targets
Test: RNA-seq of CPP-P8/CPP-P1-treated CHA15 cells with siControl or siLIN28A (Supplementary Fig. 6e)
Format: cell-based, Homo sapiens
Description: For CPP-conjugated peptide delivery, HeLa, 293T, and PA-1 cells were incubated with CPP-conjugated peptides or CPP-FITC at 2 μM in DMEM with 10% FBS for 12 h a day before cell harvest. hPSCs were treated with CPP-conjugated peptides at 10 μM in mTeSR Plus Medium, and the peptide-containing medium was changed every day over 10 days. The ROCK inhibitor (Tocris Bioscience, Y-27632) treated-hPSCs were dissociated into single cells using Accutase (Merck, SCR005) and differentiated into ectoderm, mesoderm, and endoderm using the STEMdiff Trilineage Differentiation Kit ([…] Technologies, 05230) following the manufacturer’s protocol. Differentiated cells treated with CPP-conjugated peptides were analysed at 0, 3, and 5 days for ectoderm and endoderm, and at 0, 3, and 4 days for mesoderm.
Total RNA concentration was calculated using Quant-IT RiboGreen (Invitrogen, R11490). To assess the integrity of the total RNA, samples were run on a TapeStation RNA screentape (Agilent). Only high-quality RNA preparations with RNA integrity number greater than 7.0 were used for the RNA library construction. A library was independently prepared with 1 μg of total RNA from each sample using the Illumina TruSeq Stranded mRNA Sample Prep Kit (Illumina, 20020594). The first step in the workflow involves purifying poly‐A-containing mRNA molecules using poly‐T‐attached magnetic beads. Following purification, mRNA was fragmented into small pieces using divalent cations at elevated temperatures. The cleaved RNA fragments were copied into first-strand cDNA using SuperScript II reverse transcriptase (Invitrogen, 18064022) and random primers. This was followed by second-strand cDNA synthesis using DNA polymerase I, RNase H, and dUTP. These cDNA fragments underwent an end repair process, adding a single ‘A’ base and ligating the adapters. The products were purified and enriched via PCR to create the final cDNA library. The libraries were quantified using the KAPA Library Quantification Kits for Illumina Sequencing platforms according to the qPCR Quantification Protocol Guide (KAPA BIOSYSTEMS, KR0405) and qualified using the TapeStation D1000 ScreenTape (Agilent). Indexed libraries were then submitted to an Illumina NovaSeq (Illumina), and Macrogen Inc. performed paired-end (2 × 100 bp) sequencing.
We pre-processed the raw reads from the sequencer to remove low-quality reads and adapter sequences before analysis and aligned the processed reads to Homo sapiens (GRCh37) using HISAT v2.1.0[52]. HISAT utilises two indices for alignment (a global whole-genome index and tens of thousands of small local indexes). These two types of indices are constructed using the same Burrows-Wheeler transform (BWT)/graph FM index (GFM) as Bowtie2. The reference genome sequence of Homo sapiens (GRCh37) and the annotation data were downloaded from the NCBI database. Transcript assembly was processed using StringTie v1.3.4d[53],[54]. […] Differentially expressed genes (DEGs) were analysed by ratio of FPKM or using DESeq2 with read counts. Log2 fold-change value of the NMD targets[25],[32], three germ layer markers, miRNA targets, or SDGs was converted into cumulative frequency curve using the R function, ‘ecdf’ (version 4.0.5). Gene functional classification and Gene ontology (GO) were performed using g:Profiler[56]. […]
Scale bars, 100 μm . d (Corresponding to Fig. 6d) RT -qPCR was perform ed to evaluate the level of indicated transcripts upon the indicated peptide treatm ent in CHA15 cells. e T ranscriptom e analysis was perf orm ed using signif icantly changed transcripts (p < 0.05) f rom siLIN28A or siControl in the indicated CPP-peptide treated CHA15 cells. Scatter […]
(bottom panel), respectively. f Levels of m ature endogenous m iRNAs in CHA15 cells, which were regulated by LIN28A, were assessed using RT -qPCR. Cum ulative f raction of log2 fold change in the expression of genes regulated by let-7-5p and m iR-16- 5p was shown as CDF graphs. […]

[1] = CHA15, absence of LIN28A (siRNA)

In the case of “KKKWCRKKKSSADEKRYRALKRTAERELLMNA [CPP-P8, CPP conjugated to P8]”, the “fraction deregulated in a LIN28A-independent manner” value (7 (6+1) out of 95 (42+53)) is reported as 7.4%, the “transcripts downregulated over 2-fold” value [1] is reported as 2 transcripts and the “transcripts upregulated over 2-fold” value [1] is reported as 12. For the same sequence, the “transcripts downregulated over 2-fold” value (CHA15, presence of LIN28A) was 53 transcripts, the “transcripts upregulated over 2-fold” value (CHA15, presence of LIN28A) was 42 transcripts and the FEZF1-AS1 expression (CHA15, siControl) was 20.4087 FPKM. It also gave an LHX5-AS1 expression (CHA15, siControl) of 61.4319 FPKM, an LMO1 expression (CHA15, siControl) of 15.1171 FPKM and a CUZD1 expression (CHA15, siLIN28A) of 5.545 FPKM. For the same sequence, the CXCL5 expression (CHA15, siLIN28A) was 5.9 FPKM, the MT2A expression (CHA15, siLIN28A) was 11.8304 FPKM and the “transcriptome change in absence of LIN28A” value (hESCs, siLIN28A) was “less impact on the transcriptome change, including NMD targets, in the absence of LIN28A”.
